Test results taken from patent US20260284028A1, “FUSED BICYCLIC HETEROCYCLYL COMPOUNDS AS CCR4 MODULATORS” (AURIGENE ONCOLOGY LIMITED, priority 2023, published 2026).
Read-outs that look alike come from different tables or passages of the source.

Biological target: T1, CCR4 (Homo sapiens, UniProt P51679)
T1 construct: expressed in transfected cells; host or cells: CHO-K1
T1 sequence (P51679 1-360): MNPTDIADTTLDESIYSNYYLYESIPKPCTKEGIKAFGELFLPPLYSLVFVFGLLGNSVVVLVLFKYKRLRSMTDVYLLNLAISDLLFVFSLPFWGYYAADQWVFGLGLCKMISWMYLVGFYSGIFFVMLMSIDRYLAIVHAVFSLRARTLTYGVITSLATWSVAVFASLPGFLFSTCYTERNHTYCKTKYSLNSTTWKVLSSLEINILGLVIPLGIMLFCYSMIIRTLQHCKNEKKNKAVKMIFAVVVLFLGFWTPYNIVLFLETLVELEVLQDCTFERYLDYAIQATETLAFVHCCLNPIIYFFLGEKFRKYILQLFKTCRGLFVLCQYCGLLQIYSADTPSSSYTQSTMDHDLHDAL
Assay: β-Arrestin recruitment assay (CHO-K1 CCR4 β-Arrestin cells stimulated with recombinant human CCL22)
Format: cell-based
Details: CCL22 10 nM stimulation; for inhibition: read-out: % inhibition at 5 μM/30 μM (% E-Max); for IC50: read-out: CCR4 antagonistic activity IC50 (μM) in range
Description: CHO-K1 CCR4 β-Arrestin cells were seeded and incubated overnight at 37° C. in a CO2 incubator for adherence. Next day, cells were pretreated with various concentrations of CCR4 modulators for 30 mins at 37° C. The cells were stimulated with recombinant human CCL22 (10 nM) and further incubated for 90 mins. Working detection solution was added and incubated at room temperature for 1 hour after which the chemiluminescent signal was read using a luminometer.
Exemplary compounds of the present application were screened by the above-mentioned assay and the results were tabulated.

[1] = CHO-K1, read-out: % inhibition 30 μM (% E-Max)

SMILES	inhibition [1] [%]	IC50 [µM]	% inhibition at 5 μM/30 μM (% E-Max) [% at 5 μM]	inhibition (CHO-K1, at 30 μM) [%]
C[C@@H](Nc1c(F)ccc2nc(N3CC([C@H]4CCCN([C@H]5C[C@](C)(C(=O)O)C5)C4)C3)sc12)c1ccc(F)cc1F [Compound 29]	103	< 0.25	–	–
C[C@@H](Nc1c(F)ncc2nc(N3CC([C@H]4CCCN([C@H]5C[C@](C)(C(=O)O)C5)C4)C3)sc12)c1ccc(Cl)cc1Cl [Compound 30]	103	< 0.25	–	–
C[C@@H](Nc1ncnc2nc(N3CC([C@H]4CCCN([C@H]5C[C@](C)(C(=O)O)C5)C4)C3)sc12)c1ccc(Cl)cc1Cl [Compound 32, (1R,3r)-3-((R)-3-(1-(7-(((R)-1-(2,4-Dichlorophenyl)ethyl)amino)thiazolo[4,5-d]pyrimidin-2-yl)azetidin-3-yl)piperidin-1-yl)-1-methylcyclobutane-1-carboxylic acid]	104	< 0.25	–	–
C[C@@H](Nc1c(F)ccc2nc(N3CC([C@H]4CCCN([C@H]5C[C@](C)(C(=O)O)C5)C4)C3)sc12)c1ncc(Cl)cc1Cl [Compound 37, (1R,3r)-3-((R)-3-(1-(7-(((S)-1-(3,5-dichloropyridin-2-yl)ethyl)amino)-6-fluorobenzo[d]thiazol-2-yl)azetidin-3-yl)piperidin-1-yl)-1-methylcyclobutane-1-carboxylic acid]	–	> 0.5	78	–
CC(Nc1c(F)ccc2nc(N3CC([C@H]4CCCN([C@H]5C[C@](C)(C(=O)O)C5)C4)C3)sc12)c1ncc(F)cc1F (some centres unmarked) [Compound 38]	81	0.25 to 0.5	–	–
C[C@@H](Nc1c(F)ccc2nc(N3CC([C@H]4CCCN([C@H]5C[C@](C)(C(=O)O)C5)C4)C3)sc12)c1ncc(F)cc1F [Compound 39]	39	–	–	–
CC(Nc1c(F)cnc2nc(N3CC([C@H]4CCCN([C@H]5C[C@](C)(C(=O)O)C5)C4)C3)sc12)c1ncc(F)cc1F (some centres unmarked) [Compound 44]	99	0.25 to 0.5	–	–
C[C@@H](Nc1ncnc2nc(N3CC([C@H]4CCCN([C@H]5C[C@](C)(C(=O)O)C5)C4)C3)sc12)c1ncc(Cl)cc1Cl [Compound 53]	94	0.25 to 0.5	–	–

Next, values leading:

inhibition [1] [%]	IC50 [µM]	% inhibition at 5 μM/30 μM (% E-Max) [% at 5 μM]	inhibition (CHO-K1, at 30 μM) [%]	SMILES
61	–	–	–	C[C@@H](Nc1c(Cl)ccc2nc(N3CC([C@H]4CCCN(C5(CC(=O)O)CCC5)C4)C3)oc12)c1ccc(Cl)cc1Cl [Compound 24]
101	< 0.25	–	–	C[C@@H](Nc1c(F)ccc2nc(N3CC([C@H]4CCCN([C@H]5C[C@](C)(C(=O)O)C5)C4)C3)sc12)c1ccc(Cl)cc1Cl [Compound 25]
103	< 0.25	–	–	C[C@@H](Nc1c(F)ccc2nc(N3CC(C4CN([C@H]5C[C@](C)(C(=O)O)C5)CCO4)C3)sc12)c1ccc(Cl)cc1Cl (some centres unmarked) [Compound 26]
103	< 0.25	–	–	Cc1nc(N[C@H](C)c2ccc(Cl)cc2Cl)c2sc(N3CC([C@H]4CCCN([C@H]5C[C@](C)(C(=O)O)C5)C4)C3)nc2n1 [Compound 33]
102	0.25 to 0.5	–	–	C[C@@H](Nc1nc(C(F)(F)F)nc2nc(N3CC([C@H]4CCCN([C@H]5C[C@](C)(C(=O)O)C5)C4)C3)sc12)c1ccc(Cl)cc1Cl [Compound 34]
–	< 0.25	103	–	C[C@@H](Nc1c(F)ccc2nc(N3CC([C@H]4CCCN([C@H]5C[C@](C)(C(=O)O)C5)C4)C3)sc12)c1ncc(Cl)cc1Cl [Compound 36, (1R,3r)-3-((R)-3-(1-(7-(((R)-1-(3,5-dichloropyridin-2-yl)ethyl)amino)-6-fluorobenzo[d]thiazol-2-yl)azetidin-3-yl)piperidin-1-yl)-1-methylcyclobutane-1-carboxylic acid]
84	0.25 to 0.5	–	–	C[C@H](Nc1c(F)ccc2nc(N3CC([C@H]4CCCN([C@H]5C[C@](C)(C(=O)O)C5)C4)C3)sc12)c1ncc(F)cc1F [Compound 40]
101	0.25 to 0.5	–	–	CC(Nc1c(F)cnc2nc(N3CC([C@H]4CCCN([C@H]5C[C@](C)(C(=O)O)C5)C4)C3)sc12)c1ncc(Cl)cc1Cl (some centres unmarked) [Compound 41]
93	> 0.5	–	–	CC(Nc1c(OC(F)F)ccc2nc(N3CC([C@H]4CCCN([C@H]5C[C@](C)(C(=O)O)C5)C4)C3)sc12)c1ncc(Cl)cc1Cl (some centres unmarked) [Compound 47]
52	–	–	–	C[C@@H](Nc1c(OC(F)F)ccc2nc(N3CC([C@H]4CCCN([C@H]5C[C@](C)(C(=O)O)C5)C4)C3)sc12)c1ncc(Cl)cc1Cl [Compound 48]
–	> 0.5	–	99	C[C@H](Nc1c(OC(F)F)ccc2nc(N3CC([C@H]4CCCN([C@H]5C[C@](C)(C(=O)O)C5)C4)C3)sc12)c1ncc(F)cc1F [Compound 52]
